According to article PMC4385830, “Group I Paks as therapeutic targets in NF2-deficient meningioma” (Oncotarget, 2015):

Key:
KT21 cells = assay: Apoptosis, Annexin V positive cells by flow cytometry; format: cell-based; conditions: 3 days, vs DMSO
Protocol: For detection of apoptosis, subconfluent cells were plated in 60-mm plate and treated with inhibitors for 3 days. Cells were collected, washed and resuspended in 1x binding buffer with Annexin V-EGFP and propidium iodide (BioVision, CA) and incubated at room temperature for 5 min in dark. Apoptosis was measured using FACS with collecting 10,000 events per sample.

PDGFRB (PDGFR beta) = molecular target: T1, PDGFRB (PDGFR beta) (Homo sapiens, UniProt P09619); assay: Kinase selectivity, Z'-LYTE; format: biochemical
T1 construct: purchased Invitrogen (Life Technologies) SelectScreen Z'-LYTE
Method in brief: (§1)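 Selectivity was profiled by a fluorescence-based coupled-enzyme assay in which phosphorylated and non-phosphorylated peptides differ in sensitivity to proteolytic cleavage. Recombinant kinases were used, each with an assay mixture optimized for that kinase.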

CDK1/cyclin B = molecular target: T2, CDK1/cyclin B (Homo sapiens, UniProt P06493); assay: Kinase selectivity, Z'-LYTE; format: biochemical
T2 construct: purchased Invitrogen (Life Technologies) SelectScreen Z'-LYTE
T2 sequence (P06493 whole entry): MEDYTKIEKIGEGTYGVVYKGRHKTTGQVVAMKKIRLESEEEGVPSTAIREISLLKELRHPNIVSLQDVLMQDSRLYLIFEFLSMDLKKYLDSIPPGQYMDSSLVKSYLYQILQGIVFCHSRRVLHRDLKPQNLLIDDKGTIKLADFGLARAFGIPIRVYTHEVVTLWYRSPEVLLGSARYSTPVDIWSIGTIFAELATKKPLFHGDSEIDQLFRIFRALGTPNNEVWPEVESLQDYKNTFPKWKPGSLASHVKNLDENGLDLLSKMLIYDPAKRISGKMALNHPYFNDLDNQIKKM
T2 sequence (P14635 whole entry partner): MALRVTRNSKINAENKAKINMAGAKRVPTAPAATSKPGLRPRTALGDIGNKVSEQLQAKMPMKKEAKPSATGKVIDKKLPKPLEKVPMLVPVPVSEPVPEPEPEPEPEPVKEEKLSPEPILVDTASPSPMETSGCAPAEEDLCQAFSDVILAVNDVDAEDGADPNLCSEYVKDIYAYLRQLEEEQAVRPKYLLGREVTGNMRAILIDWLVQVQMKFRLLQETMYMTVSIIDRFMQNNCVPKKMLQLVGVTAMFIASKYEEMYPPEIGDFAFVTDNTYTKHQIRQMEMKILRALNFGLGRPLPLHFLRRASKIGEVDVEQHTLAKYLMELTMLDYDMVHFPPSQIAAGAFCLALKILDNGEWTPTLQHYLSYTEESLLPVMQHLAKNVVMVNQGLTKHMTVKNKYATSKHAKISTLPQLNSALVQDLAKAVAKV
Method in brief: as §1

ADRBK1 (GRK2) = molecular target: T3, ADRBK1 (GRK2) (Homo sapiens, UniProt P25098); assay: Kinase selectivity, Z'-LYTE; format: biochemical
T3 construct: purchased Invitrogen (Life Technologies) SelectScreen Z'-LYTE
T3 sequence (P25098 1-689): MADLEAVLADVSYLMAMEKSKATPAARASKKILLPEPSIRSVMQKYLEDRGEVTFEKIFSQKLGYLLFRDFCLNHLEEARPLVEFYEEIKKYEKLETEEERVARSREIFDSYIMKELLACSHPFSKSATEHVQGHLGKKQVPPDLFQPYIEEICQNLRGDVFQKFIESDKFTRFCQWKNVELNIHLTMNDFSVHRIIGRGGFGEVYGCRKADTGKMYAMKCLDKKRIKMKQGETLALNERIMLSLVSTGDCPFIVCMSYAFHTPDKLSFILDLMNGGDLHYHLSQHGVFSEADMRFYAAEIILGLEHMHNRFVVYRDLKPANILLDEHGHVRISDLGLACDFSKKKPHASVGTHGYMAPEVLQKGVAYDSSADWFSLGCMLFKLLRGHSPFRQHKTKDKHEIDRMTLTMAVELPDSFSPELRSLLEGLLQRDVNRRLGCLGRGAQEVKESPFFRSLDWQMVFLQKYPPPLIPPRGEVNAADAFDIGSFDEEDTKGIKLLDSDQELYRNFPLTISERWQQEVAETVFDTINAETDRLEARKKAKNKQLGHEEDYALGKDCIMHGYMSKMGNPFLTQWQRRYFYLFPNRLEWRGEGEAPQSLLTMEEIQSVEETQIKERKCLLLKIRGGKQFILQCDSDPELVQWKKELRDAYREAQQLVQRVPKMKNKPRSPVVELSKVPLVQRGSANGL
Method in brief: as §1

CHEK1 (CHK1) = molecular target: T4, CHEK1 (CHK1) (Homo sapiens, UniProt O14757); assay: Kinase selectivity, Z'-LYTE; format: biochemical
T4 construct: purchased Invitrogen (Life Technologies) SelectScreen Z'-LYTE
T4 sequence (O14757 1-476): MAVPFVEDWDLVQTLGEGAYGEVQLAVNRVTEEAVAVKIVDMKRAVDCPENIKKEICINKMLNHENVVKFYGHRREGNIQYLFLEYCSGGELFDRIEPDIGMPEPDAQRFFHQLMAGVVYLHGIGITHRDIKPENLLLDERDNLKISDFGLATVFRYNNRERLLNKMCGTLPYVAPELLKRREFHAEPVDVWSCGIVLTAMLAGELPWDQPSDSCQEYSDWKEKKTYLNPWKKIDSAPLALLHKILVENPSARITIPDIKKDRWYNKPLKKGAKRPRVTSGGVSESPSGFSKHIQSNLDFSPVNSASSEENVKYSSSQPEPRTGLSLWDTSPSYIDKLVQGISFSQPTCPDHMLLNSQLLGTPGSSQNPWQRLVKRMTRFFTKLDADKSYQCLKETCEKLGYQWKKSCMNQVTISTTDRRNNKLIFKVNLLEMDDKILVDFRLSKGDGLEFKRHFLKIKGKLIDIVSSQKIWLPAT
Method in brief: as §1

CHEK2 (CHK2) = molecular target: T5, CHEK2 (CHK2) (Homo sapiens, UniProt O96017); assay: Kinase selectivity, Z'-LYTE; format: biochemical
T5 construct: purchased Invitrogen (Life Technologies) SelectScreen Z'-LYTE
T5 sequence (O96017 whole entry): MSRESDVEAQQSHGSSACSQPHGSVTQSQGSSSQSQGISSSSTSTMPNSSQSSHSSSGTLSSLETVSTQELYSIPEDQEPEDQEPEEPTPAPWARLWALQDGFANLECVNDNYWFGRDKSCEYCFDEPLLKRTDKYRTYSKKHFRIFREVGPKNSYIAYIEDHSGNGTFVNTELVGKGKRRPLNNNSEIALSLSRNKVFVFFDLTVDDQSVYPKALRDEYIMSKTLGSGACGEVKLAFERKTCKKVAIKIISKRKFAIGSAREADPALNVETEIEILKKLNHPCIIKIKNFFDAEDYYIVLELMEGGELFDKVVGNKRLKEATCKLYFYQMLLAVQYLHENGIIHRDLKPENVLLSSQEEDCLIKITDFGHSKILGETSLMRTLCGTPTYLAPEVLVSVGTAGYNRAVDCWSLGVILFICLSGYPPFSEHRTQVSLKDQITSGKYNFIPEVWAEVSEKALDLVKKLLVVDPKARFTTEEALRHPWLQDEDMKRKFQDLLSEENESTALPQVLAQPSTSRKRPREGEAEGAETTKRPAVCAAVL
Method in brief: as §1

JAK1 = molecular target: T6, JAK1 (Homo sapiens, UniProt P23458); assay: Kinase selectivity, Z'-LYTE; format: biochemical
T6 construct: purchased Invitrogen (Life Technologies) SelectScreen Z'-LYTE
Method in brief: as §1

CDK5/p35 = molecular target: T7, CDK5/p35 (Homo sapiens, UniProt Q00535); assay: Kinase selectivity, Z'-LYTE; format: biochemical
T7 construct: purchased Invitrogen (Life Technologies) SelectScreen Z'-LYTE
Method in brief: as §1

MAPKAPK2 = molecular target: T8, MAPKAPK2 (Homo sapiens, UniProt P49137); assay: Kinase selectivity, Z'-LYTE; format: biochemical
T8 construct: purchased Invitrogen (Life Technologies) SelectScreen Z'-LYTE
Method in brief: as §1

[1] = molecular target: T9, P1K3CA/PIK3R1 (p110 alpha) (Homo sapiens, UniProt P42336); assay: Kinase selectivity, Z'-LYTE; format: biochemical
T9 construct: purchased Invitrogen (Life Technologies) SelectScreen Z'-LYTE
T9 sequence (P42336 whole entry): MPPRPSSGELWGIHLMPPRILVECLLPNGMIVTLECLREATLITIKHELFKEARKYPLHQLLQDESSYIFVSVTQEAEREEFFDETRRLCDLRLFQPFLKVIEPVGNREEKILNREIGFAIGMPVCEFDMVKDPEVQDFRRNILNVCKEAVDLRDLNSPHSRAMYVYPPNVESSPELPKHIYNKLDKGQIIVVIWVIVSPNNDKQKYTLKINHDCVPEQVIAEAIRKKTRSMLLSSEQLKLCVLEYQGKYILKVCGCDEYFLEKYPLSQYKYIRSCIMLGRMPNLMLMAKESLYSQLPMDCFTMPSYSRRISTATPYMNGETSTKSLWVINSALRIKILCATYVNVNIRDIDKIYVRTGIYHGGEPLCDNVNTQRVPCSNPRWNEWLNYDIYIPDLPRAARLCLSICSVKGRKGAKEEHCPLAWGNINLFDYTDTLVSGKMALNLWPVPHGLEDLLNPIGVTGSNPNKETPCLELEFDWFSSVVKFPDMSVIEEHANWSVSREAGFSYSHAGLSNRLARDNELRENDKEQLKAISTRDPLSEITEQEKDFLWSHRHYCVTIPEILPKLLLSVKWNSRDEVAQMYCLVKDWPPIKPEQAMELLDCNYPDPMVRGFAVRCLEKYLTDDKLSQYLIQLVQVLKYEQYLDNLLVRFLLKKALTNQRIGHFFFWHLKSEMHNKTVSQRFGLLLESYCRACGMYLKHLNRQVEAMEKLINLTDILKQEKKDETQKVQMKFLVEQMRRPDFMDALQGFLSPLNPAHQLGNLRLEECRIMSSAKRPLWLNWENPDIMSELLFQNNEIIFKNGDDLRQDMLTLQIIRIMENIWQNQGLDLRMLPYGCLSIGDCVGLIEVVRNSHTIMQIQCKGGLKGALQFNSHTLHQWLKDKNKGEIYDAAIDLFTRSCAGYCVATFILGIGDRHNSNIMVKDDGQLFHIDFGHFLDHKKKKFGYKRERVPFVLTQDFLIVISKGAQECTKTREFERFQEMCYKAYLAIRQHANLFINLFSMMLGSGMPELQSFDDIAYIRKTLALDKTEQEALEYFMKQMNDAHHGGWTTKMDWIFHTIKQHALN
T9 sequence (P27986 whole entry partner): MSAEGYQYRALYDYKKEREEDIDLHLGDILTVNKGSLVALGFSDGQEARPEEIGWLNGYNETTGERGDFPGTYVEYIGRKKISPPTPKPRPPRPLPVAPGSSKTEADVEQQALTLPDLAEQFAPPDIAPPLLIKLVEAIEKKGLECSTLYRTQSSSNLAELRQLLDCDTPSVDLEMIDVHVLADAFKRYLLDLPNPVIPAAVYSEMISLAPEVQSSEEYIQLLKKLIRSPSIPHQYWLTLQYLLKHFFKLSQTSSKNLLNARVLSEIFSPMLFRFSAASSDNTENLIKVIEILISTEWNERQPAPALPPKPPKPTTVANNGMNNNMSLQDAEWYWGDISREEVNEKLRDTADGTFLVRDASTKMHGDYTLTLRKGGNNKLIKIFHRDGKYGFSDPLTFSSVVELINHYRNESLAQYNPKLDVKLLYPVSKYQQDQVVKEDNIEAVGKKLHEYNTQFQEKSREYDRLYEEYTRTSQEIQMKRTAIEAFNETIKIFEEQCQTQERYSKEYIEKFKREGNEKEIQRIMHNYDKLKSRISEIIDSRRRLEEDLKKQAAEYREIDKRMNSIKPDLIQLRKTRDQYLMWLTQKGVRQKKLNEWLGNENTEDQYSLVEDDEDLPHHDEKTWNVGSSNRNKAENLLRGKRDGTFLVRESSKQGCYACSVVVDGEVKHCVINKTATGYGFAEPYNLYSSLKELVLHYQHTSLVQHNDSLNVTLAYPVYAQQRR
Method in brief: as §1

BRAF = molecular target: T10, BRAF (Homo sapiens, UniProt P15056); assay: Kinase selectivity, Z'-LYTE; format: biochemical
T10 construct: purchased Invitrogen (Life Technologies) SelectScreen Z'-LYTE
T10 sequence (P15056 whole entry): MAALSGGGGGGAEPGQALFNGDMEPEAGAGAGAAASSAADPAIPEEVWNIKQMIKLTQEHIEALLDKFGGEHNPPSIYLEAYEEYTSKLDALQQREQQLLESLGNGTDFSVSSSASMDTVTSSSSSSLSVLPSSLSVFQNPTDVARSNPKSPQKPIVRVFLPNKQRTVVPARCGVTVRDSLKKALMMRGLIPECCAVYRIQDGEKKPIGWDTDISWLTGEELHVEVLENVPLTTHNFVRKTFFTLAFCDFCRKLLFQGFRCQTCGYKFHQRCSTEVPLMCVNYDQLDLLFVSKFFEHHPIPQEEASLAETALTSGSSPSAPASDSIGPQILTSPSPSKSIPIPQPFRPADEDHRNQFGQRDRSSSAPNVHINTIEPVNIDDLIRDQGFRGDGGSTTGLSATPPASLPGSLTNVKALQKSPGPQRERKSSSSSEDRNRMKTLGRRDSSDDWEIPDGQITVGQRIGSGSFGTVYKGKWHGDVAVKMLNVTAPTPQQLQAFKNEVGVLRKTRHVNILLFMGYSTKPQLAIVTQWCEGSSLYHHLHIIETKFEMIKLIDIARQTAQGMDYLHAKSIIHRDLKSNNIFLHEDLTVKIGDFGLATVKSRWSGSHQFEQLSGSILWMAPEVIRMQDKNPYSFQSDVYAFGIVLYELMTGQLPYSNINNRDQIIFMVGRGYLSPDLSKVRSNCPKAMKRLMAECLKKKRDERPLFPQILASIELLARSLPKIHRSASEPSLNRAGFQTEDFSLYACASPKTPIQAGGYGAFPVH
Method in brief: as §1

ACVR1B (ALK4) = molecular target: T11, ACVR1B (ALK4) (Homo sapiens, UniProt P36896); assay: Kinase selectivity, Z'-LYTE; format: biochemical
T11 construct: purchased Invitrogen (Life Technologies) SelectScreen Z'-LYTE
T11 sequence (P36896 24-505): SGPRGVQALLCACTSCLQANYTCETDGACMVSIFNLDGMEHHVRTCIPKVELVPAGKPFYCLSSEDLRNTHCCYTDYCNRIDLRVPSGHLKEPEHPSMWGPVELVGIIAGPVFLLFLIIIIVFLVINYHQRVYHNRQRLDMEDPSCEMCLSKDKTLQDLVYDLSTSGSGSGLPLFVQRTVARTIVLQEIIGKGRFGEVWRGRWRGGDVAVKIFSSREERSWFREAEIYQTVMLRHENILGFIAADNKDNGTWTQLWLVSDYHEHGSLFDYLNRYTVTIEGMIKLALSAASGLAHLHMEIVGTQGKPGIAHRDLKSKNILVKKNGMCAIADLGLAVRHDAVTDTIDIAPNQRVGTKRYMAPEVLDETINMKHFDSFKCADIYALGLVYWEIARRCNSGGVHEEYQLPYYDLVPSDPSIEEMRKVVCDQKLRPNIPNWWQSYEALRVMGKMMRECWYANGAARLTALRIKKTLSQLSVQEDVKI
Method in brief: as §1

RAF1 (cRAF) Y340D Y341D = molecular target: T12, RAF1 (cRAF) Y340D Y341D (Homo sapiens, UniProt P04049, Y340D/Y341D); assay: Kinase selectivity, Z'-LYTE; format: biochemical
T12 construct: purchased Invitrogen (Life Technologies) SelectScreen Z'-LYTE
Method in brief: as §1

PAK7 (KIAA 1264) = molecular target: T13, PAK7 (KIAA 1264) (Homo sapiens, UniProt Q9P286); assay: Kinase selectivity, Z'-LYTE; format: biochemical
T13 construct: purchased Invitrogen (Life Technologies) SelectScreen Z'-LYTE
Method in brief: as §1

PTK1 (FAK) = molecular target: T14, PTK1 (FAK) (Homo sapiens, UniProt Q05397); assay: Kinase selectivity, Z'-LYTE; format: biochemical
T14 construct: purchased Invitrogen (Life Technologies) SelectScreen Z'-LYTE
T14 sequence (Q05397 whole entry): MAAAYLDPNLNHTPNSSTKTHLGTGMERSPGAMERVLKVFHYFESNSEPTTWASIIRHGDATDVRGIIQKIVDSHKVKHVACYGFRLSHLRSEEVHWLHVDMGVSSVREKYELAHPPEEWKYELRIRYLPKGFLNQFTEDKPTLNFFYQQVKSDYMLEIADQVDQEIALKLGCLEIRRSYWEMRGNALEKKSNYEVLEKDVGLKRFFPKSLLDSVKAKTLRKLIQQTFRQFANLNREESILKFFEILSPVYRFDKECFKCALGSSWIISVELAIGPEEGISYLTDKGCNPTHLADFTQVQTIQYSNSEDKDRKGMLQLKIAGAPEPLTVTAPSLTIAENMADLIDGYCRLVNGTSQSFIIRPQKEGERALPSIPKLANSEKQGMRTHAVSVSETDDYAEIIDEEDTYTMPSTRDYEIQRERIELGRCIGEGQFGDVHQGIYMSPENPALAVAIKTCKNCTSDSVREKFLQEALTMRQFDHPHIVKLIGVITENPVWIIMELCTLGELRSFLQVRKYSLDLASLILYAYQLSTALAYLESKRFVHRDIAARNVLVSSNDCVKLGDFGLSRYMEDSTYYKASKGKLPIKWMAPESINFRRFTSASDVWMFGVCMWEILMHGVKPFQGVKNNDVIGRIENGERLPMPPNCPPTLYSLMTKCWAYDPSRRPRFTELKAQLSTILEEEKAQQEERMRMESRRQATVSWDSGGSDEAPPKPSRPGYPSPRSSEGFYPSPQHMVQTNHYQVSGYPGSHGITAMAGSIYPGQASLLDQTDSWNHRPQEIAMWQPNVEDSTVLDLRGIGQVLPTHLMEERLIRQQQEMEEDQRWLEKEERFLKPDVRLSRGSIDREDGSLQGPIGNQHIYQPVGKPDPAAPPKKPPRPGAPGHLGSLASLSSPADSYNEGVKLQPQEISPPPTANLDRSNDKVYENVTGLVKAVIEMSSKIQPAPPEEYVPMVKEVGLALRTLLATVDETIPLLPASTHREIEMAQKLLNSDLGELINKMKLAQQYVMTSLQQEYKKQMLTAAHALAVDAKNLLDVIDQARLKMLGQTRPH
Method in brief: as §1

| Structure (SMILES) | number of apoptotic cells (KT21 cells) | % inhibition of activity (PDGFRB (PDGFR beta)) | % inhibition of activity (CDK1/cyclin B) | % inhibition of activity (ADRBK1 (GRK2)) | % inhibition of activity (CHEK1 (CHK1)) | % inhibition of activity (CHEK2 (CHK2)) | % inhibition of activity (JAK1) | % inhibition of activity (CDK5/p35) | % inhibition of activity (MAPKAPK2) | % inhibition of activity [1] | % inhibition of activity (BRAF) | % inhibition of activity (ACVR1B (ALK4)) | % inhibition of activity (RAF1 (cRAF) Y340D Y341D) | % inhibition of activity (PAK7 (KIAA 1264)) | % inhibition of activity (PTK1 (FAK)) |
| --- | --- | --- | --- | --- | --- | --- | --- | --- | --- | --- | --- | --- | --- | --- | --- |
| Cc1nc(Nc2[nH]nc3c2CN(C(=O)N[C@H](CN(C)C)c2ccccc2)C3(C)C)c2sccc2n1 [PF3758309, reference compound] | substantial increase | 14% | 12% | 10% | 91% | 99% | 2% | 15% | 1% | 0% | 52% | 1% | 26% | 99% | 38% |
| CCn1c(=O)c(-c2ccc(-c3noc(C)n3)cc2Cl)cc2cnc(Nc3ccc(C4CCN(C)CC4)cc3)nc21 [Frax716] | substantial increase | 82% | 3% | 10% | −2% | 17% | 1% | 2% | 7% | −1% | 72% | −9% | 74% | 17% | 22% |
| CCn1c(=O)c(-c2ccc(-c3cncc(C)n3)cc2Cl)cc2cnc(NCCC3CCN(C)CC3)nc21 [Frax1036] | substantial increase | 83% | 6% | 0% | −14% | 7% | 1% | 7% | 0% | 0% | 7% | 0% | 11% | 9% | 9% |
